Our source for the AC50 values is ChEMBL document CHEMBL5291721, “A preclinical secondary pharmacology resource illuminates target-adverse drug reaction associations of marketed drugs” (Nat Commun, 2023).

As a reminder, the AC50 is the concentration at which the activity in the assay is half-maximal.

Experiment [1] addresses T1, Alpha-1A adrenergic receptor (Homo sapiens, UniProt P35348).
T1 sequence (P35348 whole entry): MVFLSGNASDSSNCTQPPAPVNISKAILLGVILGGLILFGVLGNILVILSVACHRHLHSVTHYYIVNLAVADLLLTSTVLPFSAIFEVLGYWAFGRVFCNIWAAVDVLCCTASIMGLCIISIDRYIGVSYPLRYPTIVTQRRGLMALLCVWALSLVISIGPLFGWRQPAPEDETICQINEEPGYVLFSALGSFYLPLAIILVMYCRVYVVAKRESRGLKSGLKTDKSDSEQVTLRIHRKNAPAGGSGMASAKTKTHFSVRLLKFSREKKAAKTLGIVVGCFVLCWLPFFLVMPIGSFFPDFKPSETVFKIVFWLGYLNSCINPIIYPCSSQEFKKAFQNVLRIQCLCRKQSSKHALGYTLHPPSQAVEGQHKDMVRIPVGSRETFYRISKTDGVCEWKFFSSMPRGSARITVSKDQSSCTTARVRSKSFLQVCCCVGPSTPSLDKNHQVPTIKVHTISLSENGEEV

The target of experiment [2] is T2, Adenosine receptor A3 (Homo sapiens, UniProt P0DMS8).
T2 sequence (P0DMS8 whole entry): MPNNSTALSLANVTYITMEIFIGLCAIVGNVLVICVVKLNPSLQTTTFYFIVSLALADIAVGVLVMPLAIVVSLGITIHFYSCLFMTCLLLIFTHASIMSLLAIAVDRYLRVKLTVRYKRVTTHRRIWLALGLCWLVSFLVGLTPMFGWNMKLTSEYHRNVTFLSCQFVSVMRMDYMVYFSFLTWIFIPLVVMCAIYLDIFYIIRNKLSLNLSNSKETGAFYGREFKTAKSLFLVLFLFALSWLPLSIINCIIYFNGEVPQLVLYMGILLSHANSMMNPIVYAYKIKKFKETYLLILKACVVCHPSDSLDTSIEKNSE

Experiment [3] addresses Melanocortin receptor 3 (Homo sapiens, UniProt P41968).
In experiment [4] the target is T3, Amine oxidase [flavin-containing] A (Homo sapiens, UniProt P21397).
T3 sequence (P21397 whole entry): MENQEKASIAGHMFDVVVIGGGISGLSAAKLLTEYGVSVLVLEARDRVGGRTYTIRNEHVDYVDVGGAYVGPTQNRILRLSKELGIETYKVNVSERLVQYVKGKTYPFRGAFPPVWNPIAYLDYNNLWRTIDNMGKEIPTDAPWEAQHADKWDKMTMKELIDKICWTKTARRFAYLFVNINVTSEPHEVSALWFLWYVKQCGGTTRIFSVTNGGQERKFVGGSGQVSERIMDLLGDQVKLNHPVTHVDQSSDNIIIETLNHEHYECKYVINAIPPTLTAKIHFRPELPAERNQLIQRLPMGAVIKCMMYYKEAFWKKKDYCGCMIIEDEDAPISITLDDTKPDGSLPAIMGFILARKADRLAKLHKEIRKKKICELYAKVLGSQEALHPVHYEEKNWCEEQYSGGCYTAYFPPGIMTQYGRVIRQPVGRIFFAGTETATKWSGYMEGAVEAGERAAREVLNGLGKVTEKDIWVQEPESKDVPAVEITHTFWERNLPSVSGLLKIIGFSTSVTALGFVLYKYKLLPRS
Type of experiment: functional.

Experiment [5] has as its target Cannabinoid receptor 1 (Homo sapiens, UniProt P21554). Type of experiment: functional, cell-based.
The target of experiment [6] is Adenosine receptor A2a (Homo sapiens, UniProt P29274).
Sequence of Adenosine receptor A2a (P29274 whole entry): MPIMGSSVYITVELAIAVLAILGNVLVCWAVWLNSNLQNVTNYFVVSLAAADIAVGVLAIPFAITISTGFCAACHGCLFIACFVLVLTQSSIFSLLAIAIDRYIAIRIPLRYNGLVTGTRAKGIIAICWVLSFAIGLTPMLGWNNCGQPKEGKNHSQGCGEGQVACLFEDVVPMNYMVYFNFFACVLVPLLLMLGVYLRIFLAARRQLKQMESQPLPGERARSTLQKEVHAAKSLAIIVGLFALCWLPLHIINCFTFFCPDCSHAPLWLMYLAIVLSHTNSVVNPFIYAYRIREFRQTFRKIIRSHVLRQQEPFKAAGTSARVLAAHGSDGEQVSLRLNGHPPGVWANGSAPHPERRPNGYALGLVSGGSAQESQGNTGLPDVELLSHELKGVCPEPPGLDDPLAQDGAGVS
For experiment [7], the target named is T4, Cholecystokinin receptor type A (Homo sapiens, UniProt P32238).
T4 sequence (P32238 whole entry): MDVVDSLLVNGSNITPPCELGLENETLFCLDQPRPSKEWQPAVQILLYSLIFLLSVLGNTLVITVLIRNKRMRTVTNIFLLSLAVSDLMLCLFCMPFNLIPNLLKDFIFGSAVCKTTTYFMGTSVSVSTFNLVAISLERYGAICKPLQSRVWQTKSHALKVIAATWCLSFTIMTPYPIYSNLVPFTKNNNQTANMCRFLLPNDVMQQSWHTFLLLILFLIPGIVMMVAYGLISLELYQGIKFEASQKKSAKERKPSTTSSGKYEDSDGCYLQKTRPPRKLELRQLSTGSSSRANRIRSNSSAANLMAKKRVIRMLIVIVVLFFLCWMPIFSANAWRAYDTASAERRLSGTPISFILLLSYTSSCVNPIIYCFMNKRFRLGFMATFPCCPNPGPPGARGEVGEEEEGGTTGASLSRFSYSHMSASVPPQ

Experiment [8] concerns the target T5, Alpha-2C adrenergic receptor (Homo sapiens, UniProt P18825).
T5 sequence (P18825 whole entry): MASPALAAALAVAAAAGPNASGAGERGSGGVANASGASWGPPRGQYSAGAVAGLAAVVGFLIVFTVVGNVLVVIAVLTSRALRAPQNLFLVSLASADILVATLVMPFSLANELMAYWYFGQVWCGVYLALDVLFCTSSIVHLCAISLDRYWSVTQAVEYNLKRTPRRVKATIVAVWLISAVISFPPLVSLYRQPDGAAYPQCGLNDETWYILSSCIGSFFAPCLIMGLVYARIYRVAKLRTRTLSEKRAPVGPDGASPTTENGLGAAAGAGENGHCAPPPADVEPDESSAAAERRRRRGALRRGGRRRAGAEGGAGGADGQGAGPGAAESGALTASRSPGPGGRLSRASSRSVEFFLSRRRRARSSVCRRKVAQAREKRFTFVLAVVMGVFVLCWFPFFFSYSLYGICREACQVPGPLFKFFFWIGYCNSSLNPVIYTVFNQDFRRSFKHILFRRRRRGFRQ
The experiment is classed as functional.

In experiment [9] the target is T6, 5-hydroxytryptamine receptor 1A (Homo sapiens, UniProt P08908).
T6 sequence (P08908 whole entry): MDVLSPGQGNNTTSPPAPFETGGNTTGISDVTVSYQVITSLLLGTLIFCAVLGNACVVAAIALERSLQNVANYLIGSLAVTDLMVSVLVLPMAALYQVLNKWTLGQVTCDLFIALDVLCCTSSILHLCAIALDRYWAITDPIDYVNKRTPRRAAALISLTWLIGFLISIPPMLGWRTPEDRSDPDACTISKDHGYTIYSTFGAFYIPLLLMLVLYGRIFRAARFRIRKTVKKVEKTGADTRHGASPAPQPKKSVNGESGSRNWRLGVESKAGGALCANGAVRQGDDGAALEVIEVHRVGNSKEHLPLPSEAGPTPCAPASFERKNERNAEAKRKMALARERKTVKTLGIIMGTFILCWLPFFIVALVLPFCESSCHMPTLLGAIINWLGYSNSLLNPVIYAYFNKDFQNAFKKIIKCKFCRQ
The experiment is classed as functional, cell-based.
Also: assay procedure not described here.

Sequence of Cannabinoid receptor 1 (P21554 whole entry): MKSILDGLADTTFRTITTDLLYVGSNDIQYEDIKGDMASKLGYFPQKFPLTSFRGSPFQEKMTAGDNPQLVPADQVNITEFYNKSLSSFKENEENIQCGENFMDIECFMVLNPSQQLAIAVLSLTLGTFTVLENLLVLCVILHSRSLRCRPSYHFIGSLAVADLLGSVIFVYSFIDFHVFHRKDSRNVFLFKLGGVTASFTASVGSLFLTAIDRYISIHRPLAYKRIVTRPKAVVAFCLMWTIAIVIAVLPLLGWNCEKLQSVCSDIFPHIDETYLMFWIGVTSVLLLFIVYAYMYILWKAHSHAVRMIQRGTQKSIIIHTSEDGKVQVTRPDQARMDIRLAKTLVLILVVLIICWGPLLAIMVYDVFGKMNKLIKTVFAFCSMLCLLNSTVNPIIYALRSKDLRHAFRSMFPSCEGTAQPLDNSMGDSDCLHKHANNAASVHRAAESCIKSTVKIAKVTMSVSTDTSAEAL
Sequence of Melanocortin receptor 3 (P41968 whole entry): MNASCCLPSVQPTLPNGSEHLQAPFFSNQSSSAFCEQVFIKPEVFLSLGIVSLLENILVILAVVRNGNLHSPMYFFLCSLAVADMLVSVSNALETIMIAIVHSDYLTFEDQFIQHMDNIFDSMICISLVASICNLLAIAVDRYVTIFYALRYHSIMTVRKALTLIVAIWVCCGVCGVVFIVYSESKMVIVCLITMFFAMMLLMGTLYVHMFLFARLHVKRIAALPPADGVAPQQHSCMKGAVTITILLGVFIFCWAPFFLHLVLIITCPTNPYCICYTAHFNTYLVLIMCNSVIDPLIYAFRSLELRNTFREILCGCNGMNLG

With `CC(C)CN(C[C@@H](O)[C@H](Cc1ccccc1)NC(=O)O[C@H]1CCOC1)S(=O)(=O)c1ccc(N)cc1`, the AC50 was > 10 µM in experiment [1]; > 30 µM in experiment [2]; > 30 µM in experiment [3]; > 10 µM in experiment [4]; 12 µM in [5]; > 30 µM in experiment [6]. For the same molecule, the AC50 in experiment [7] was > 30 µM; in experiment [8], > 10 µM.

Turning to `CC1=C(CC(=O)O)c2cc(F)ccc2/C1=C\c1ccc([S+](C)[O-])cc1` (stereo not drawn), the AC50 was > 10 µM in [1]; > 30 µM in experiment [2]; > 30 µM in experiment [3]; > 10 µM in experiment [4]; > 30 µM in experiment [5]; > 30 µM in experiment [6]. Moreover, the AC50 is > 30 µM in experiment [7], > 10 µM in [9] and > 10 µM in experiment [8].

Take `Cc1nnc2n1-c1ccc(Cl)cc1C(c1ccccc1)=NC2` [ALPRAZOLAM]: the AC50 in experiment [1] is > 10 µM; in experiment [2], > 30 µM; in [3], > 30 µM; in experiment [4], > 10 µM; in experiment [5] it was > 30 µM; in experiment [6], > 30 µM. Also, the AC50 was > 30 µM in experiment [7], > 10 µM in [9] and > 10 µM in experiment [8].

Consider `CCOC(=O)C1=C(C)NC(C)=C(C(=O)OC)C1c1cccc(Cl)c1Cl` (stereo not drawn) [FELODIPINE], for which the AC50 was 13 µM in [1]; 7.91 µM in experiment [2]; > 30 µM in [3]; > 10 µM in experiment [4]; > 30 µM in [5]; > 30 µM in [6]. Further, the AC50 in experiment [7] is > 30 µM; in experiment [9], > 10 µM; in [8], > 10 µM.

Regarding `CC(=O)[C@@]1(O)CC[C@H]2[C@@H]3C[C@H](C)C4=CC(=O)C=C[C@]4(C)[C@@]3(F)[C@@H](O)C[C@@]21C` [FLUOROMETHOLONE], the AC50 was > 10 µM in experiment [1]; > 10 µM in experiment [2]; > 10 µM in [3]; > 10 µM in experiment [4]; > 30 µM in experiment [5]; > 10 µM in [6]. Also, the AC50 in [7] and in [8] was > 10 µM each time.

For `CN1C2CCCC1CC(NC(=O)c1nn(C)c3ccccc13)C2` (stereo not drawn) [GRANISETRON], the AC50 in [1] was > 10 µM; in experiment [2] it was > 30 µM; in [3], > 30 µM; in [4], > 10 µM; in [5], > 30 µM; in experiment [6] it was > 30 µM. Also, the AC50 in [7] is > 30 µM; in experiment [9] it was > 10 µM; in experiment [8], > 10 µM.

Consider `N=C(N)NC(=O)Cc1c(Cl)cccc1Cl` [GUANFACINE], for which the AC50 is 7.64 µM in experiment [1]; > 30 µM in experiment [2]; > 30 µM in experiment [3]; 6.88 µM in [4]; > 30 µM in [5]; > 30 µM in experiment [6]. Moreover, the AC50 in experiment [7] and in [9] was > 30 µM in each case.

As to `CC1Cc2ccccc2N1NC(=O)c1ccc(Cl)c(S(N)(=O)=O)c1` (stereo not drawn) [INDAPAMIDE], the AC50 in experiment [1] is > 10 µM; in experiment [2] it was > 30 µM; in experiment [3], > 30 µM; in experiment [4], > 10 µM; in experiment [5], > 30 µM; in experiment [6], > 30 µM. The AC50 in experiment [7] was > 30 µM; in [8], > 10 µM.

Regarding `CC(=O)N1CCN(c2ccc(OCC3COC(Cn4ccnc4)(c4ccc(Cl)cc4Cl)O3)cc2)CC1` (stereo not drawn) [KETOCONAZOLE], the AC50 was > 10 µM in [1]; 17.7 µM in experiment [2]; > 10 µM in experiment [3]; > 10 µM in experiment [4]; > 30 µM in experiment [5]; > 30 µM in experiment [6]. Besides, the AC50 in experiment [7] and in experiment [8] was > 10 µM in each case.

`CN1CCC(=C2c3ccccc3CC(=O)c3sccc32)CC1` [KETOTIFEN]: the AC50 in [1] is 10.4 µM; in experiment [2], > 10 µM; in experiment [3], > 10 µM; in [4] it was > 10 µM; in [5] it was 16 µM; in experiment [6] it was > 10 µM. Besides, the AC50 in experiment [7] was > 10 µM; in experiment [9], > 10 µM; in experiment [8], 6.45 µM.

For the molecule `COc1nc(C)nc(Cl)c1N=C1NCCN1` [MOXONIDINE], the AC50 in [1], in experiment [2], in experiment [3], in [4], in experiment [5] and in experiment [6] was > 30 µM throughout. Further, the AC50 in experiment [7] and in [9] was > 30 µM throughout.

For the molecule `CC(C)(C)NCC(O)COc1cccc2c1CC(O)C(O)C2` (stereo not drawn) [NADOLOL], the AC50 in [1] was > 10 µM; in experiment [2] it was > 10 µM; in experiment [3], > 10 µM; in experiment [4], > 10 µM; in [5], > 30 µM; in experiment [6], > 10 µM. In addition, the AC50 in [7] and in experiment [8] was > 10 µM throughout.

With `Cc1cccc(Nc2ccncc2S(=O)(=O)NC(=O)NC(C)C)c1` [TORSEMIDE], the AC50 in experiment [1] is > 10 µM; in experiment [2] it was > 30 µM; in [3] it was > 30 µM; in [4], > 10 µM; in experiment [6], > 30 µM; in experiment [7], > 30 µM. In addition, the AC50 in experiment [9] and in [8] was > 10 µM each time.

As to `CCN(C(C)=O)c1cccc(-c2ccnc3c(C#N)cnn23)c1` [ZALEPLON], the AC50 in experiment [1] is > 10 µM; in [2] it was > 30 µM; in experiment [3], > 30 µM; in [4], > 10 µM; in experiment [5] it was > 30 µM; in [6], > 30 µM. For the same molecule, the AC50 is > 30 µM in experiment [7], > 10 µM in [9] and > 10 µM in experiment [8].
